Test [1] is described as follows: Inhibition of IL2 receptor binding to IL2 alpha receptor by scintillation proximity assay. For orientation: Scintillation proximity formats need no separation of bound from free tracer.
In test [2] the target is Beta-nerve growth factor (Homo sapiens, UniProt P01138). In words: Inhibition of NGF binding to p75NTR.

Usually IC50 stands for the concentration that inhibits the measured activity by half. As a reminder, the Ki is the dissociation constant of the complex between target and ligand, obtained from inhibition or displacement.

Molecules are shown by their SMILES.

Chain of Beta-nerve growth factor (P01138 122-241 limits assumed): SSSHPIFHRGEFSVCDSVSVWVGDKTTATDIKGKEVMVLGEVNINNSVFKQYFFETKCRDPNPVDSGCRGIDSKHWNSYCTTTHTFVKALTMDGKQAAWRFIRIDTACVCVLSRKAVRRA

Turning to `COC(=O)[C@H](Cc1ccc(C#Cc2ccccc2)cc1)NC(=O)C[C@H]1CCCN(C(=N)N)C1`, the IC50 in test [1] amounted to 3000 nM. Consider `CC(C)C[C@@H](NC(=N)N)C(=O)NCC(=O)N1CCC(c2cc(-c3ccc(OCc4ccc(C(=O)O)o4)c(Cl)c3Cl)nn2C)CC1`, for which the Ki in test [1] turned out to be 60 nM. For `Cc1cc2nc3c(=O)[nH]c(=O)nc-3n(C)c2cc1C=O`, in test [2], the IC50 stood at 1000 nM.

For the origin of these results see ChEMBL document CHEMBL2169777, “Chemical modulators working at pharmacological interface of target proteins” (Bioorg Med Chem, 2012).
